Measurements reported in US20070161634A1, “Compounds as CCR5 antagonists” (priority 2004, published 2007).
Where two headings read alike, the source gives them in different places.

Key:
CCR5 receptor = CCR5 receptor (Homo sapiens, UniProt P51681); test: [35S]GTPγS binding assay; assay type: biochemical
Excerpt: [^35S]GTPγS binding assay
CCR5 receptor binds to agonists and changes its conformation which enables it to interact with and activate G protein, a heterotrimer which consists of subunits α and βγ. The capability of G protein α subunit binding to GTP depends on the effect between CCR5 and the agonists, therefore, the amount of α subunit bound GTP should reflect the agonists activity on the CCR5 receptor. In the GTPγS binding assay, [^35S]GTPγS is resistant to the GTPase activity of α subunit, and thus cannot be hydrolyzed when bound to G protein, making it accurate to reflect the receptor activation. Radiolabled [^35S]GTPγS can also serve as marker for detection in place of GTP. When CCR5 is not activated, α subunit is bound to GDP, but when CCR5 is activated, α subunit binds to [^35S]GTPγS, therefore, measurement of the number of the α subunit-bound ^35S-GTPγS can reflect the CCR5 activation level.
CCR5 activation of G-protein was measured according to assays below:
Permanent cell line expressing CHO of CCR5 (available at Euroscreen S.A., Belgium) was lysed by lysis buffer (5 mM Tris HCl, pH 7.5, 5 mM EDTA and 5 mM EGTA), and centrifuged at 15,000×g for 10 min. Cell membrane was resuspended with reaction buffer (5 mM Tris HCl, pH 7.5, 5 mM MgCl2, 1 mM EGTA, 100 mM NaCl), and protein concentrations were determined using Bioford assay (Bio-rad). [^35S]GTPγS binding assay was performed in the 100 μl reaction buffer system, which contains 10 ug membrane protein, 40 uM GDP and 0.5 nM [^35S]GTPγS (1200 Ci/mmol). After adding the study compounds, the system was vortexed and placed on ice for 5 min, and then CCR5 agonist was added (10 nM RANTES or 30 nM MIP1β). After vortexing, the reaction tubes were incubated at 30° C. for 1 h. After the reaction was complete, the reaction tubes were placed on ice and diluted with PBS to terminate the reaction. After suction through the GF/C filter membrane under vacuum, the membrane bound radioactivity was measured with a scintillation counter. Basal binding was measured without presence of agonist, and non-specific binding was measured in the presence of 10 mM nonisotopical GTPγS. The binding ratio of [^35S]GTPγS was calculated according to 100×[c.p.m.sample−c.p.m. non-specific]/[c.p.m.basal−c.p.m. non-specific]. IC50 was the compound concentration at which half of the [^35S]GTPγS binding induced by 10 nM RANTES or 30 nM MIP1β was inhibited, and the value was obtained from the concentration-inhibition curve (6-7 points for concentrations of each compound).

CXCR4 = CXCR4 (Homo sapiens, UniProt P61073); test: effects on the activation of CXCR4 receptor; settings: at the concentration of 10,000 nM
Sequence of CXCR4 (P61073 whole entry, species assumed): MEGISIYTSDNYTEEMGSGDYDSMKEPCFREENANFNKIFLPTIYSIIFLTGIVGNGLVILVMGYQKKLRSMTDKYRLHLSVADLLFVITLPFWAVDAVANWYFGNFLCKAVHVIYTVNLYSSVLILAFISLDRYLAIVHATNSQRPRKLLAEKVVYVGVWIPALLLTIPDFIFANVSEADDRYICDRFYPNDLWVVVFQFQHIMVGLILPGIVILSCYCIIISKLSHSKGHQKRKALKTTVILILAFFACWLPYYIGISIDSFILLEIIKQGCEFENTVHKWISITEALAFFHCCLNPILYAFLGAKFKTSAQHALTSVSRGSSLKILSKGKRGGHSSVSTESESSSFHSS

CCR1 = molecular target: T1, CCR1 (Homo sapiens, UniProt P32246); test: effects on the activation of CCR1 receptor; settings: at the concentration of 10,000 nM
T1 sequence (P32246 1-355): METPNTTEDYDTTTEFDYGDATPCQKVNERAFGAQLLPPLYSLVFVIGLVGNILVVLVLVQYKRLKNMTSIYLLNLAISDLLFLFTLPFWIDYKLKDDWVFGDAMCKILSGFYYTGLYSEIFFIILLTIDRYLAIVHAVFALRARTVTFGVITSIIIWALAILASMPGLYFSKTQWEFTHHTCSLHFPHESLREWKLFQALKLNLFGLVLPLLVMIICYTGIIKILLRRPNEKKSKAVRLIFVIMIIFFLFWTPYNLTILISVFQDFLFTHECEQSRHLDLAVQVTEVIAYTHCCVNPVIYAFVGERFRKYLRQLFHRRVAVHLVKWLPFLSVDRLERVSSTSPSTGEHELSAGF

MTT cytotoxicity assay = assay type: cell-based; settings: human, peripheral blood mononuclear cells (PBMC) and Jurkat cells; MTT
Experimental: (§1) C. MTT Cytotoxicity Assay
(§2) Cells were prepared as single cell suspension, and cell densities were adjusted according to the cell size and cell features. Cells were inoculated with 100 ul culture media into 96 well plates, and incubated in 37° C. incubator (5% CO2, saturated humidity). The seeding densities were as follows: peripheral blood monouclear cells (PBMC) 10^5 cells /well, Jurket 4×10^4 cells/well. 24 h after cell inoculation, the compounds to be tested were added and incubated with cells. 48 h after inoculation, 10 μl MTT (Sigma, USA, 5 mg/ml, diluted with PBS and stored at −20° C.) was added to each well, and incubated for another 4 h in 37° C. incubator. Then add 50 μl formazane solvent (10%SDS-5%isopropanol−0.01M HCl) and incubate overnight. Determine OD570/OD630 nm at spectrophotometer, and calculate CC50 according to the inhibition curve.

[1] = system: peripheral blood monouclear cells (PBMC), Jurket; test: MTT cytotoxicity assay; assay type: cell-based; settings: at 10,000 nM
Experimental: as §1, §2

[2] = system: HEK 293 cells expressing human CCR5 receptors (293CCR5); test: Chemotaxis assay; assay type: cell-based; settings: chemotaxis caused by 10 nM RANTES, read-out: IC50 on cell chemotaxis
Experimental: The procedures were as follows:
The assay is performed with a 48 well plate (AP48, Neuroprobe Inc., USA) and 8 uM filter membrane (25×80 mm). The filter membrane was pre-immersed in rat tail collagen for at least 2 h. The filter membrane was taken out and dried on a super-clean bench, then the filter membrane was immersed in 0.1% BSA-MEM. HEK 293 cells expressing human CCR5 receptors (293CCR5) (available at Euroscreen S.A., Belgium) were digested with D.T. for 1 min, and pelleted by centrifugation at 200 g. Resuspend the cells in 0.1% BSA-MEM, count and dilute the cell suspension to 3×10^6 cells/ml. Fill each well with 26.5 μl tll of a chemokine dilution or 1% BSA MEM, place the filter membrane and cover a lid on the well, add 50 μl of the cells suspension to each well. When testing the compound antagonism, the compounds to be tested were added to the cell suspension, and pre-incubated at 37° C. for 20 min. Then place the plate in 37° C. incubator, and incubate for 6 h. Take out of the filter membrane and remove the cells in the well, fix the filter membrane in 4% polyformaldehyde solution at 4° C. overnight. The filter membrane was taken out the next day and stained with crystal violet for at least 2 h, then wash with water and allow it to dry. Scan the filter membrane, and calculate the shades with Scion Image. […]

water solubility = assay type: physicochemical; settings: mesylate compared with II-a-a
[3] = Table I, [35S]GTPγS binding, read-out: IC50
[4] = [35S]GTPγS binding initiated by 10 nM RANTES, read-out: IC50(nM) ± S.E.

Sequence of CCR5 receptor (P51681 whole entry): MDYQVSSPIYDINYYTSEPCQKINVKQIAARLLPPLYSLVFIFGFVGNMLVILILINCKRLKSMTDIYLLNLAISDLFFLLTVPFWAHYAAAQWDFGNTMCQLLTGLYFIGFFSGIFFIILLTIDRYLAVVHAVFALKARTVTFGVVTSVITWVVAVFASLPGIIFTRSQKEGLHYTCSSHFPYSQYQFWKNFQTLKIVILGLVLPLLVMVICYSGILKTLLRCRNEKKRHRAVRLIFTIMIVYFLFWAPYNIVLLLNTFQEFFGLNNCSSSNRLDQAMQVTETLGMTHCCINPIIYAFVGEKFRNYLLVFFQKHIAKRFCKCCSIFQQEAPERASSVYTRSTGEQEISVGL

Row | Structure (SMILES) | IC50 (CCR5 receptor; [3]) [nM] | IC50 (CCR5 receptor; [4]) [nM] | activation or antagonism of CXCR4 receptor (CXCR4) | activation or antagonism of CCR1 receptor (CCR1) | CC50 at 24 h (MTT cytotoxicity assay) [nM] | cytotoxicity on cells [1] | IC50 [2] [nM] | IC50 (CCR5 receptor; b360, read-out: IC50) [nM] | water solubility increase (water solubility)
1 | C=CCN(C(=O)OCc1ccc([N+](=O)[O-])cc1)C1CCN(CC2CN(C(=O)c3ccccc3I)CC2(O)c2ccccc2)CC1 (stereo not drawn) [III-a-c, 4-nitrobenzyl allyl(1-((4-hydroxy-1-(2-iodobenzoyl)-4-phenylpyrrolidin-3-yl)methyl)piperidin-4-yl)carbamate] | 24.9 ± 8.8 | 24.9 ± 8.8 | do not activate or antagonize | do not activate or antagonize | ~30000 | no significant cytotoxicity |  |  | 
2 | C=CCN(C(=O)OCc1ccc([N+](=O)[O-])cc1)C1CCN(CC2CN(C(=O)c3cccc4ccccc34)CC2(O)c2ccccc2)CC1 (stereo not drawn) [III-a-d, 4-nitrobenzyl 1-((1-(1-naphthoyl)-4-hydroxy-4-phenylpyrrolidin-3-yl)methyl)piperidin-4-yl(allyl)carbamate] | 26.8 ± 2 | 26.8 ± 2 | do not activate or antagonize | do not activate or antagonize | ~30000 | no significant cytotoxicity |  |  | 
3 | C=CCN(C(=O)OCc1ccc([N+](=O)[O-])cc1)C1CCN(CC2CN(C(=O)C3CCCC3)CC2(O)c2ccccc2)CC1 (stereo not drawn) [III-a-e, 4-nitrobenzyl allyl(1-((1-(cyclopentanecarbonyl)-4-hydroxy-4-phenylpyrrolidin-3-yl)methyl)piperidin-4-yl)carbamate] | 5.3 ± 0.6 | 5.3 ± 0.6 | do not activate or antagonize | do not activate or antagonize | ~30000 | no significant cytotoxicity | ~30 |  | 
4 | C=CCN(C(=O)OCc1ccc([N+](=O)[O-])cc1)C1CCN(CC2CN(C(=O)C3CCCCC3)CC2(O)c2ccccc2)CC1 (stereo not drawn) [III-a-f, 4-nitrobenzyl allyl(1-((1-(cyclohexanecarbonyl)-4-hydroxy-4-phenylpyrrolidin-3-yl)methyl)piperidin-4-yl)carbamate] | 7.3 | 7.3 ± 0.6 | do not activate or antagonize | do not activate or antagonize | ~30000 | no significant cytotoxicity |  |  | 
5 | CCN(C(=O)OCc1ccccc1)C1CCN(CC2CN(Cc3ccccc3)CC2(O)c2ccccc2)CC1 (stereo not drawn) [mesylate of II-a-a] |  |  |  |  |  |  |  | 342 ± 72.5 | about 10 fold
